Common to all, as to experiment: biochemical
Experiment [1] deals with T1, human EphB2-His ectodomain - human EphrinB2-Fc ectodomain (EphB2-EphrinB2 tetramer) (Homo sapiens, UniProt P29323+P52799).
In experiment [2] the target is T1, human EphB2-His ectodomain - human EphrinB2-Fc ectodomain (EphB2-EphrinB2 tetramer). As to conditions: EphrinB2-EphB2 IC50 (Absolute, µM).
For experiment [3] the target is unchanged. This is another data set of the same source.
Experiment [4] shares this target. The note with it: EphrinB2-EphB2 IC50 (Relative, µM).

pIC50: −log10 of the molar value. Where a name gives a salt, the structure may show the parent alone. Read-outs that look alike come from different tables or passages of the source.

Experimental findings from publication doi:10.64898/2025.12.08.692997v2 (biorxiv, 2025) are described below.

T1 sequence (P52799 28-229): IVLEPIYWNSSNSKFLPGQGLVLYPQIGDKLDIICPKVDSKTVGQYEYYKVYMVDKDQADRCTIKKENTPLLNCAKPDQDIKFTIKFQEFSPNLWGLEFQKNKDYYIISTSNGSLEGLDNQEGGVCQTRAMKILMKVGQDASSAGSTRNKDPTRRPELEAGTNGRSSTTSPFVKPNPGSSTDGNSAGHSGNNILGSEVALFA
T1 sequence (P29323 19-543): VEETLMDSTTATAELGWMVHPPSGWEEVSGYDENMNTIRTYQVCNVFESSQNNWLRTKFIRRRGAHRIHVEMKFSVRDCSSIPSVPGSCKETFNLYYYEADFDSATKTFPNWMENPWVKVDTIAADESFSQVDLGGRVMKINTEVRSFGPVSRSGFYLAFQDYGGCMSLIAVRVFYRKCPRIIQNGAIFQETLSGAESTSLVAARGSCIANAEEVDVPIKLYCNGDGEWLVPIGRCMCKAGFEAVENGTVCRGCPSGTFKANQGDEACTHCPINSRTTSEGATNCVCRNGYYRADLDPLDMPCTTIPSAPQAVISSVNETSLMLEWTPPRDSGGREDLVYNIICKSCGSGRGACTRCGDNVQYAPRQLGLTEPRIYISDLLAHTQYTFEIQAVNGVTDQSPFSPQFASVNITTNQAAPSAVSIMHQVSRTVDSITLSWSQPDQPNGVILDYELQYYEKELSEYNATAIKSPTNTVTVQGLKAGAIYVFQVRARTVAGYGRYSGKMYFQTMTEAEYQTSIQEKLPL

As a reminder, the pIC50 is the IC50 on a negative log10 scale, so that one unit is a factor of ten. A high value points to a low IC50. In the case of `CCN(CC)C(=O)Oc1c(Cl)cc(Cl)c2cccnc12` [compound 6, 5,7-dichloro-8-quinolinyl diethylcarbamate], the pIC50 in experiment [1] is < 4.00.

As usually defined, the IC50 is the concentration at which inhibition is half-maximal. Low readings indicate greater potency in that assay, high ones weaker potency in that assay. On to `Oc1ccc(CN2CCN(c3ccc(Br)cn3)CC2)c2cccnc12` [QPP. 2 HCl, 5-((4-(5-bromopyridin-2-yl)piperazin-1-ium-1-yl)methyl)-8-hydroxyquinolin-1-ium chloride], for which the IC50 in experiment [2] was > 3.2 µM.

Regarding `Oc1c(Br)cc(CN2CCN(Cc3ccc(Br)cc3)CC2)c2cccnc12` [BQPB4-Bn, 7-bromo-5-((4-(4-bromobenzyl)piperazin-1-yl)methyl)quinolin-8-ol], in experiment [2], the half-maximal inhibitory concentration (IC50) was > 3.2 µM.

Consider `Cc1cccc(C(=O)Oc2ccc(Cl)c3cccnc23)c1` [compound 18, 5-chloro-8-quinolinyl 3-methylbenzoate], for which the pIC50 in experiment [3] was < 4.00.

`Cc1ccc2c(CN3CCOCC3)cc(Br)c(O)c2n1` [2-MeA20, 7-bromo-2-methyl-5-(morpholinomethyl)quinolin-8-ol]: the IC50 in experiment [2] is > 3.2 µM.

`O=[N+]([O-])c1cc(CN2CCS(=O)(=O)CC2)c2cccnc2c1O` [QTM-NO2, 4-((8-hydroxy-7-nitroquinolin-5-yl)methyl)thiomorpholine 1,1-dioxide]: the IC50 in experiment [2] was > 3.2 µM.

For `COc1ccccc1N1CCN(Cc2cc(Br)c(O)c3ncccc23)CC1` [3511-0013, 7-bromo-5-((4-(2-methoxyphenyl)piperazin-1-yl)methyl)quinolin-8-ol], in experiment [2], the IC50 is > 1.6 µM.

For `CN(C)C(=O)Oc1c(Br)cc(Cl)c2cccnc12` [compound 8, 7-bromo-5-chloro-8-quinolinyl dimethylcarbamate], the pIC50 in experiment [1] was < 4.00.

In the case of `COc1ccc2[nH]cc(C(=O)N3CCN(c4ccccc4OC)CC3)c2c1` [IMP2, (5-methoxy-1H-indol-3-yl)(4-(2-methoxyphenyl)piperazin-1-yl)methanone], the IC50 in experiment [4] and in experiment [2] was > 1.6 µM in each case.

With `Cc1ccc(C(=O)Oc2c(Cl)cc(Cl)c3cccnc23)cc1C` [compound 17, 5,7-dichloro-8-quinolinyl 3,4-dimethylbenzoate], the pIC50 in experiment [3] is < 4.00.

Turning to `CN(C)C(=O)Oc1c(I)cc(Cl)c2cccnc12` [compound 11, 5-chloro-7-iodo-8-quinolinyl dimethylcarbamate], the pIC50 in experiment [1] is < 4.00.

`Oc1ccc(CN2CCN(c3ccc(I)cc3)CC2)c2cccnc12` [QPI4 . 2HCl, 8-hydroxy-5-((4-(4-iodophenyl)piperazin-1-ium-1-yl)methyl)quinolin-1-ium chloride]: in experiment [2], the IC50 is > 1.6 µM.

For the compound `O=[N+]([O-])c1cc(CN2CCOCC2)c2cccnc2c1O` [A19-NO2 . 2 HCl, 4-((8-hydroxy-7-nitroquinolin-1-ium-5-yl)methyl)morpholin-4-ium chloride], the IC50 in experiment [4] and in experiment [2] was > 1.6 µM in each case.

`OCc1ccc2c(CN3CCOCC3)ccc(O)c2n1` [2OH-A19, 2-(hydroxymethyl)-5-(morpholinomethyl)quinolin-8-ol]: the IC50 in experiment [4] and in experiment [2] was > 3.2 µM in each case.

As to `Oc1ccc(CN2CCN(c3ccc(F)cc3F)CC2)c2cccnc12` [QPDF, 5-((4-(2,4-difluorophenyl)piperazin-1-yl)methyl)quinolin-8-ol], the IC50 in experiment [4] and in experiment [2] was > 1.6 µM in each case.

Turning to `CC(=O)Nc1ccc(N2CCN(Cc3ccc(O)c4ncccc34)CC2)cc1` [QPA-Ac, N-(4-(4-((8-hydroxyquinolin-5-yl)methyl)piperazin-1-yl)phenyl)acetamide], the IC50 in experiment [2] was > 3.2 µM.

Consider `O=[N+]([O-])c1cc(CN2CCOCC2)c2cccnc2c1O` [A19-NO2, 5-(morpholinomethyl)-7-nitroquinolin-8-ol], for which the half-inhibitory concentration (IC50) in experiment [4] and in experiment [2] was > 3.2 µM in each case.

Take `Oc1c(Br)cc(CN2CCOCC2)c2cccnc12` [A20 . 2 HCl, 4-((7-bromo-8-hydroxyquinolin-1-ium-5-yl)methyl)morpholin-4-ium chloride]: the concentration for half-maximal inhibition (IC50) in experiment [2] is 0.78 µM.

As to `O=C(Oc1ccc(Cl)c2cccnc12)c1ccc(Cl)c(Cl)c1` [compound 10, 5-chloro-8-quinolinyl 3,4-dichlorobenzoate], the negative logarithm of the IC50 (pIC50) in experiment [3] was < 4.00.

On to `O=S1(=O)CCN(Cc2cc(Br)c(O)c3ncccc23)CC1` [QTM-Br . 2 HCl, 4-((7-bromo-8-hydroxyquinolin-1-ium-5-yl)methyl)thiomorpholin-4-ium 1,1-dioxide chloride], for which the IC50 in experiment [4] was 0.62 µM. That is a sub-micromolar value.

On to `CCN(CC)C(=O)Oc1c(I)cc(Cl)c2cccnc12` [compound 10, 5-chloro-7-iodo-8-quinolinyl diethylcarbamate], for which, in experiment [1], the pIC50 was < 4.00.

Turning to `CCN(CC)C(=O)Oc1c(Br)cc(Cl)c2cccnc12` [compound 7, 7-bromo-5-chloro-8-quinolinyl diethylcarbamate], the pIC50 in experiment [1] is < 4.00.

For `CN(C(=O)Oc1cccc2cccnc12)c1ccccc1` [compound 2, 8-quinolinyl methyl(phenyl)carbamate], the pIC50 in experiment [1] is < 4.00.

Regarding `OCc1ccc2c(CN3CCOCC3)cc(Br)c(O)c2n1` [2OH-A20, 7-bromo-2-(hydroxymethyl)-5-(morpholinomethyl)quinolin-8-ol], the IC50 in experiment [2] is > 3.2 µM.

On to `COc1cc(OC)cc(C(=O)Oc2ccc(Cl)c3cccnc23)c1` [compound 15, 5-chloro-8-quinolinyl 3,5-dimethoxybenzoate], for which, in experiment [3], the negative logarithm of the IC50 (pIC50) is < 4.00.

For `Cc1ccc2c(CN3CCN(c4ccc(Br)cc4)CC3)ccc(O)c2n1` [2-MeQPB4, 5-((4-(4-bromophenyl)piperazin-1-yl)methyl)-2-methylquinolin-8-ol], the IC50 in experiment [4] and in experiment [2] was > 3.2 µM throughout.

`COc1ccc2[nH]cc(C(=O)N3CCN(c4ccc(Br)cc4)CC3)c2c1` [IPB4, (4-(4-bromophenyl)piperazin-1-yl)(5-methoxy-1H-indol-3-yl)methanone]: the IC50 in experiment [4] and in experiment [2] was > 1.6 µM each time.

Take `COc1ccccc1N1CCN(Cc2ccc(O)c3ncccc23)CC1` [3511-0013-BF, 5-((4-(2-methoxyphenyl)piperazin-1-yl)methyl)quinolin-8-ol]: the IC50 in experiment [2] is > 3.2 µM.

With `Oc1ccc(CN2CCOCC2)c2cccnc12` [A19 . 2 HCl, 4-((8-hydroxyquinolin-1-ium-5-yl)methyl)morpholin-4-ium chloride], the concentration for half-maximal inhibition (IC50) in experiment [2] was > 6.4 µM.

As for `O=C(Oc1ccc(Cl)c2cccnc12)c1cccc(Br)c1` [compound 7, 5-chloro-8-quinolinyl 3-bromobenzoate], the pIC50 in experiment [3] is < 4.00.

Consider `Oc1ccc(CN2CCN(Cc3ccc(C(F)(F)F)cc3)CC2)c2cccnc12` [QPCF34-Bn, 5-((4-(4-(trifluoromethyl)benzyl)piperazin-1-yl)methyl)quinolin-8-ol], for which the concentration for half-maximal inhibition (IC50) in experiment [4] and in experiment [2] was > 1.6 µM each time.

As for `O=C(Cc1ccccc1)Nc1ccc(N2CCN(Cc3cc(Br)c(O)c4ncccc34)CC2)cc1` [BQPA-PAc, N-(4-(4-((7-bromo-8-hydroxyquinolin-5-yl)methyl)piperazin-1-yl)phenyl)-2-phenylacetamide], the IC50 in experiment [4] and in experiment [2] was > 3.2 µM throughout.

Regarding `O=C(Oc1ccc(Cl)c2cccnc12)c1cccc(Cl)c1` [compound 8, 5-chloro-8-quinolinyl 3-chlorobenzoate], the pIC50 in experiment [3] is < 4.00.

`Oc1ccc(CN2CCN(c3ccccc3)CC2)c2cccnc12` [QPPh, 5-((4-phenylpiperazin-1-yl)methyl)quinolin-8-ol]: the concentration for half-maximal inhibition (IC50) in experiment [2] is > 3.2 µM.

For `O=C(Oc1c(I)cc(Cl)c2cccnc12)N1CCCCC1` [compound 9, 5-chloro-7-iodo-8-quinolinyl 1-piperidinecarboxylate], the pIC50 in experiment [1] was < 4.00.

As for `COc1cc(C(=O)Oc2ccc(Cl)c3cccnc23)cc(OC)c1OC` [compound 14, 5-chloro-8-quinolinyl 3,4,5-trimethoxybenzoate], the pIC50 in experiment [3] was < 4.00.

Take `O=C(Oc1cccc2cccnc12)c1ccc(Br)cc1` [compound 1, 8-quinolinyl 4-bromobenzoate]: the pIC50 in experiment [3] is < 4.00.

Turning to `Oc1ccc(CN2CCN(c3ccccc3)CC2)c2cccnc12` [QPPh . 2HCl, 8-hydroxy-5-((4-phenylpiperazin-1-ium-1-yl)methyl)quinolin-1-ium chloride], the IC50 in experiment [4] and in experiment [2] was > 1.6 µM in each case.

For `O=S1(=O)CCN(Cc2cc(I)c(O)c3ncccc23)CC1` [QTM-I . 2 HCl, 4-((8-hydroxy-7-iodoquinolin-1-ium-5-yl)methyl)thiomorpholin-4-ium 1,1-dioxide chloride], in experiment [2], the IC50 is > 1.6 µM.

With `Cc1ccc2c(CN3CCN(c4ccc(Br)cc4)CC3)ccc(O)c2n1` [2-MeQPB4 . 2 HCl, 5-((4-(4-bromophenyl)piperazin-1-ium-1-yl)methyl)-8-hydroxy-2-methylquinolin-1-ium chloride], the 50% inhibitory concentration (IC50) in experiment [4] and in experiment [2] was > 1.6 µM each time.

In the case of `COc1ccc(C(=O)Oc2cccc3cccnc23)cc1Cl` [compound 13, 8-quinolinyl 3-chloro-4-methoxybenzoate], the pIC50 in experiment [3] is < 4.00.

`Oc1ccc(CN2CCN(c3ccc(Br)cc3)CC2)c2cccnc12` [QPB4 . 2 HCl, 5-((4-(4-bromophenyl)piperazin-1-ium-1-yl)methyl)-8-hydroxyquinolin-1-ium chloride]: the IC50 in experiment [2] is > 1.6 µM.

For `COc1ccc2[nH]cc(C(=O)N3CCOCC3)c2c1` [IM, (5-methoxy-1H-indol-3-yl)(morpholino)methanone], the IC50 in experiment [4] and in experiment [2] was > 3.2 µM throughout.

For `COc1ccc(C(=O)Oc2ccc(Cl)c3cccnc23)cc1` [compound 16, 5-chloro-8-quinolinyl 4-methoxybenzoate], in experiment [3], the negative logarithm of the IC50 (pIC50) is < 4.00.
